Assay results reported in paper PMC12477777, “Human exposure to green spaces and monoterpenes: discovery and use of α-pinene metabolites as biomarkers” (Environment international, 2025).
Like-named read-outs stand apart in the source and are kept apart here.

How the values were obtained:
[1] = Relative quantification of urinary aPM (UPLC-QTOF-MS, creatinine-normalized) after controlled α-pinene inhalation; format: in vivo, human; conditions: for Frequency of occurrence (percentage of samples with analyte detected) / Maximum response (highest peak response across all urine samples) / Observed Tmax / Tmax: human urine after α-pinene inhalation; for Proportion (observed) after α-pinene inhalation: share of total response of 22 aPM, averaged over post-exposure samples; for Tmax: inhaled or intranasal, read-out: Observed Tmax
Procedure: (§1) Briefly, for controlled inhalation experiments, eight healthy volunteers were exposed to α-pinene in a custom-built exposure chamber via inhalation from a 15 ml conical tube, containing approximately 100 μl α-pinene, for a duration of 10 min. Urine samples were collected before exposure (0 h) and 0.5, 1, 2, 3, and 4 h after exposure. […] Urine samples were collected both before (0 h) or 4 h after exposure. After collection, the urine samples were centrifuged and stored at −80 °C before analysis. […] Demographic information, including sex, age and race, can be found in Table S1.
(§2) Briefly, after 1:10 dilution, urine samples were separated using an Acquity I-Class UPLC system with an Acquity Premier CSH C18 UPLC column (Waters, MA) with a gradient comprising 0.1 % formic acid in water as the solvent A and 0.1 % formic acid in acetonitrile as the solvent B. Mass Spectrometry Elevated Energy (MS^E) data were collected using a Waters Synapt XS MS (Waters, MA) with an ESI ion source operated in the negative mode. Subsequent analyses of raw files were performed using UNIFI 1.9 and Progenesis QI 3.0 (both from Waters, MA). To validate LC-MS performance, one quality control (QC) sample, prepared by pooling equal amount of each urine sample, was injected after every ten urine sample injections.
(§3) Relative quantification of aPM was performed based on the peak responses normalized to urinary creatinine levels. Urinary creatinine levels were measured using an Ace Axcel Clinical Chemistry System with ACE Creatinine Reagent from Alfa Wassermann (West Caldwell, NJ). Statistical analyses, including ANOVA and Student’s t-tests, were conducted using SAS 9.4 (SAS Institute, NC) to explore differences in aPM across various time points. […] A threshold for statistical significance was defined as p < 0.05.

[2] = Kinetic modeling of urinary aPM with a pseudo one-compartment nonlinear mixed-effects model after α-pinene inhalation; format: in vivo, human; conditions: for F (%), fraction of metabolite generated from absorbed α-pinene: human urine after 10 min α-pinene inhalation, F normalized to the sum of 22 detected metabolites; for Elimination t1/2 / Ka, first-order generation constant / Ke, first-order elimination rate constant / half-life / k el: human urine after α-pinene inhalation, pseudo one-compartment model; for half-life / k el: inhaled or intranasal; for half-life: read-out: Elimination t1/2 (converted); for k el: read-out: Ke, first-order elimination rate constant (converted)
Description: In this equation, i represents the participant index, j the urine sample index, C the creatinine-normalized peak response, and t the sample collection time ( h).Ka denotes the first-order generation constant ( h^−1 ), and Ke denotes the first-order elimination rate constant h^−1 . F indicates the fraction of specific aPM relative to absorbed α-pinene. The variables D and V refer to the absorbed α-pinene amount and the distribution volume, respectively. Because input data were derived from relative quantification, absolute values of D , V , and F were not available. For simplicity, D and V were fixed at 100 and 1, respectively, and F was normalized relative to the sum of all detected aPM. The error term ε accounts for residual variation.

[3] = aPM in mouse urine after i.p. injection of (+)-α-pinene or (−)-α-pinene; format: in vivo, mice (C57BL/6); conditions: for R/(R+S): mouse urine, enantiomer specificity
Procedure: Mouse urine was collected after exposures to either (+) or (−) α-pinene to distinguish between metabolites of different enantiomers of α-pinene. Adult male mice (C57BL/6) were intraperitoneally administered with 50 mg/kg body weight of (+)-α-pinene or (−)-α-pinene dissolved in 100 μl sterile saline with 1 % Tween 80.

[4] = Urinary aPM after 4 h greenness (forest) exposure; format: in vivo, human; design: Maximum response: unit not given here; conditions: for Frequency of occurrence / Maximum response: human urine, greenness exposure; for Proportion (observed) after greenness exposure: share of total aPM response
Procedure: as §1, §2, §3

[5] = cited from earlier work
[6] = mouse urine collected overnight, 50 mg/kg i.p. (+)-α-pinene, 50 mg/kg
[7] = mouse urine collected overnight, 50 mg/kg i.p. (−)-α-pinene, 50 mg/kg
[8] = male, C57BL/6, mouse, in vivo, ip, 50 mg/kg

Compound | Frequency of occurrence (percentage of samples with analyte detected) [1] | Maximum response (highest peak response across all urine samples) [1] | Observed Tmax [1] | Proportion (observed) after α-pinene inhalation [1] | F (%), fraction of metabolite generated from absorbed α-pinene [2] | Elimination t1/2 [2] | Ka, first-order generation constant [2] | Ke, first-order elimination rate constant [2] | (1R)-(+)-α-Pinene (Average), proportion of aPM in mouse urine [3, 6] | (1S)-(−)-α-Pinene (Average), proportion of aPM in mouse urine [3, 7] | R/(R+S) [3] | Frequency of occurrence [4] | Maximum response [4] | Proportion (observed) after greenness exposure [4] | other results
CC1(C)C2CC1C(OC1OC(C(=O)O)C(O)C(O)C1O)C=C2C(=O)O (single isomer, unassigned) [aPM5d, Myrtenic acid-4-O-GlcA] | 81.3% | 5115 | 60 min | 0.4% | 0.27 ± 0.09% | 78.6 ± 27.6 min | 1.33 ± 0.51 h⁻¹ | 0.53 ± 0.19 h⁻¹ | 0.2% | 0.0% | 100% | 0.0% |  |  | 
CC1(C)C2CC1C(OC1OC(C(=O)O)C(O)C(O)C1O)C=C2C(=O)O (single isomer, unassigned) [aPM5e, Myrtenic acid-4-O-GlcA] | 72.9% |  | 60 min | 0.3% | 0.38 ± 0.16% | 45.6 ± 16.8 min | 0.91 ± 0.36 h⁻¹ | 0.91 ± 0.34 h⁻¹ | 0.0% | 0.3% | 0% | 25.0% | 93 | 1.0% | 
CC1(C)C2CC1C(OC1OC(C(=O)O)C(O)C(O)C1O)C=C2C(=O)O (single isomer, unassigned) [aPM5f, Myrtenic acid-4-O-GlcA] | 87.5% | 5543 | 60 min | 0.5% | 0.29 ± 0.12% | 57 ± 22.2 min | 1.53 ± 0.71 h⁻¹ | 0.73 ± 0.29 h⁻¹ | 0.0% | 0.0% |  | 0.0% |  |  | 
CC1(C)C2CC1C(OC1OC(C(=O)O)C(O)C(O)C1O)C=C2C(=O)O (single isomer, unassigned) [aPM5g, Myrtenic acid-4-O-GlcA] | 100.0% | 77327 | 60 min | 4.4% | 5.10 ± 2.25% | 41.4 ± 17.4 min | 1.62 ± 0.81 h⁻¹ | 1.01 ± 0.43 h⁻¹ | 0.0% | 0.0% |  | 25.0% | 98 | 0.4% | 
CC1(C)C2CC1C(C(=O)O)=CC2=O (stereo not shown) [aPM1, Myrtenic acid-4-one] | 95.8% | 17385 |  | 1.8% | 1.15 ± 0.39% |  | 1.25 ± 0.43 h⁻¹ |  |  |  |  | 31.3% | 3544 | 1.3% | Tmax [1]: 60 min; half-life [2]: 72 ± 22.8 min; k el [2]: 0.000161 s⁻¹; (1R)-(+)-α-Pinene (Average), proportion of aPM in mouse urine [3, 8]: 0.1%; (1S)-(−)-α-Pinene (Average), proportion of aPM in mouse urine [3, 8]: 0.8%
CC1=CC(OC2OC(C(=O)O)C(O)C(O)C2O)C2CC1C2(C)C (stereo not shown) [aPM2b, verbenol glucuronide] | 100.0% |  |  |  | 17.23 ± 3.91% |  | 3.46 ± 0.98 h⁻¹ |  |  |  |  | 6.3% | 171 | 0.3% | Tmax [1]: 30 min; half-life [2]: 35.4 ± 4.8 min; k el [2]: 0.000325 s⁻¹; (1R)-(+)-α-Pinene (Average), proportion of aPM in mouse urine [3, 8]: 50.5%; (1S)-(−)-α-Pinene (Average), proportion of aPM in mouse urine [3, 8]: 34.4%; Detection in mouse urine ([3]; mouse, in vivo): present in murine samples
CC1(C)C2CC=C(COC3OC(C(=O)O)C(O)C(O)C3O)C1C2 (stereo not shown) [aPM2c, myrtenol glucuronide] | 95.8% | 154854 |  | 4.9% | 6.99 ± 2.12% |  | 3.02 ± 0.88 h⁻¹ |  |  |  |  | 31.3% | 1435 | 0.5% | Tmax [1]: 30 min; half-life [2]: 30 ± 5.4 min; k el [2]: 0.000386 s⁻¹; (1R)-(+)-α-Pinene (Average), proportion of aPM in mouse urine [3, 8]: 21.8%; (1S)-(−)-α-Pinene (Average), proportion of aPM in mouse urine [3, 8]: 30.3%
C=C(C)[C@H]1CC=C(C)CC1 [limonene] |  |  |  |  |  |  |  |  |  |  |  |  |  |  | Blood half-life (t1/2α) ([5]; limonene in blood, ref Falk-Filipsson et al., 1993): ~ 3 min
CC1=CCC2CC1C2(C)C (stereo not drawn) [α-pinene, α-Pinene] |  |  |  |  |  |  |  |  |  |  |  |  |  |  | Blood half-life (t1/2α) ([5]; α-pinene in blood, ref Falk et al., 1990): ~ 5 min
Myrtenic acid-4-O-7-O-GlcA [aPM8] | 83.3% | 13644 | 60 min | 0.8% | 0.65 ± 0.31% | 58.2 ± 25.2 min | 0.73 ± 0.33 h⁻¹ | 0.71 ± 0.31 h⁻¹ |  |  |  | 0.0% |  |  | (1R)-(+)-α-Pinene (Average), proportion of aPM in mouse urine ([3]; mouse urine collected overnight, 50 mg/kg i.p. (+)-α-pinene): 0.0%; (1S)-(−)-α-Pinene (Average), proportion of aPM in mouse urine ([3]; mouse urine collected overnight, 50 mg/kg i.p. (−)-α-pinene): 0.0%
Pinanetriol-GlcA [aPM7a] | 89.6% | 20611 | 60 min | 1.3% | 1.56 ± 0.66% | 44.4 ± 13.2 min | 1.46 ± 0.48 h⁻¹ | 0.93 ± 0.27 h⁻¹ | 21.2% | 3.8% | 84.7% | 0.0% |  |  | 
Pinanetriol-GlcA [aPM7b] | 83.3% | 8663 | 30 min | 0.2% | 0.28 ± 0.09% | 36.6 ± 7.2 min | 2.69 ± 0.73 h⁻¹ | 1.15 ± 0.22 h⁻¹ | 3.7% | 0.0% | 100% | 0.0% |  |  | 
